Assay results taken from PubChem BioAssay AID2060884 (Molecular Pharmacology Branch, DTP, NCI, 2025).

System: NCI-H929 complex spheroids, viability % test/control
Assay: Anticancer human tumor NCI-H929 cell line growth inhibition [RAS];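 also: compound exposure lasted seven days before viability was read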;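 as to viability, T/C: 100% = DMSO vehicle control viability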
Conditions: for IC50: curve of first compound; for viability, T/C: stronger effect = lower value
In short: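 Multi-cell-type spheroids: tumor cells plus HUVEC endothelial cells and mesenchymal stem cells. RAS-pathway inhibitors were combined with targeted agents, each dosed in half-log steps down from clinical Cmax, or from 10 microM when Cmax was unknown.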

[1] = second compound 0.000949 µM, first compound 0.0316 µM
[2] = second compound 0.000949 µM, first compound 0.1 µM
[3] = second compound 0.000949 µM, first compound 0.316 µM
[4] = second compound 0.000949 µM, first compound 1 µM
[5] = second compound 0.000949 µM, first compound 3.16 µM
[6] = second compound 0.000949 µM, first compound 10 µM
[7] = second compound 0.003 µM, first compound 0.0316 µM
[8] = second compound 0.003 µM, first compound 0.1 µM
[9] = second compound 0.003 µM, first compound 0.316 µM
[10] = second compound 0.003 µM, first compound 1 µM
[11] = second compound 0.003 µM, first compound 3.16 µM
[12] = second compound 0.003 µM, first compound 10 µM
[13] = second compound 0.00949 µM, first compound 0.0316 µM
[14] = second compound 0.00949 µM, first compound 0.1 µM
[15] = second compound 0.00949 µM, first compound 0.316 µM
[16] = second compound 0.00949 µM, first compound 1 µM
[17] = second compound 0.00949 µM, first compound 3.16 µM
[18] = second compound 0.00949 µM, first compound 10 µM
[19] = second compound 0.03 µM, first compound 0.0316 µM
[20] = second compound 0.03 µM, first compound 0.1 µM
[21] = second compound 0.03 µM, first compound 0.316 µM
[22] = second compound 0.03 µM, first compound 1 µM
[23] = second compound 0.03 µM, first compound 3.16 µM
[24] = second compound 0.03 µM, first compound 10 µM
[25] = second compound 0.0949 µM, first compound 0.0316 µM
[26] = second compound 0.0949 µM, first compound 0.1 µM
[27] = second compound 0.0949 µM, first compound 0.316 µM
[28] = second compound 0.0949 µM, first compound 1 µM
[29] = second compound 0.0949 µM, first compound 3.16 µM
[30] = second compound 0.0949 µM, first compound 10 µM
[31] = second compound 0.3 µM, first compound 0.0316 µM
[32] = second compound 0.3 µM, first compound 0.1 µM
[33] = second compound 0.3 µM, first compound 0.316 µM
[34] = second compound 0.3 µM, first compound 1 µM
[35] = second compound 0.3 µM, first compound 3.16 µM
[36] = second compound 0.3 µM, first compound 10 µM

`CC(C)NCC(C(=O)N1CCN(c2ncnc3c2C(C)CC3O)CC1)c1ccc(Cl)cc1` (stereo unspecified) + CCn1c(-c2cc(N3CCN(C)CC3)cnc2C(C)OC)c2c3cc(ccc31)-c1csc(n1)CC(NC(=O)C1CC1C)C(=O)N1CCCC(N1)C(=O)OCC(C)(C)C2 showed an IC50 (second compound 0.000949 µM) of 1720 nM, an IC50 (second compound 0.003 µM) of 1690 nM and an IC50 (second compound 0.00949 µM) of 652 nM. The IC50 (second compound 0.03 µM) was < 31.6 nM, the IC50 (second compound 0.0949 µM) was < 31.6 nM and the IC50 (second compound 0.3 µM) was < 31.6 nM. For the same compound, the viability, T/C [1] was 102%, the viability, T/C [2] was 97.5% and the viability, T/C [3] was 105%. It also gave a viability, T/C [4] of 80.3%, a viability, T/C [5] of 16% and a viability, T/C [6] of 2.39%. For the same compound, the viability, T/C [7] was 97.7%, the viability, T/C [8] was 102% and the viability, T/C [9] was 106%. For the same compound, the viability, T/C [10] was 82.3%, the viability, T/C [11] was 11.1% and the viability, T/C [12] was 1.27%. For the same compound, the viability, T/C [13] was 109%, the viability, T/C [14] was 115% and the viability, T/C [15] was 109%. For the same compound, the viability, T/C [16] was 15.4%, the viability, T/C [17] was 1.11% and the viability, T/C [18] was 0.51%. For the same compound, the viability, T/C [19] was 42.5%, the viability, T/C [20] was 23.2% and the viability, T/C [21] was 5.92%. For the same compound, the viability, T/C [22] was 1.07%, the viability, T/C [23] was 0.47% and the viability, T/C [24] was 0.39%. It also gave a viability, T/C [25] of 5.19%, a viability, T/C [26] of 2.73% and a viability, T/C [27] of 0.72%. For the same compound, the viability, T/C [28] was 0.7%, the viability, T/C [29] was 0.37% and the viability, T/C [30] was 0.17%. For the same compound, the viability, T/C [31] was 2.88%, the viability, T/C [32] was 1.14% and the viability, T/C [33] was 0.58%. The viability, T/C [34] was 0.57%, the viability, T/C [35] was 0.75% and the viability, T/C [36] was 0.24%.
With `CC(C)n1nc(-c2ccc3oc(N)nc3c2)c2c(N)ncnc21` + CCn1c(-c2cc(N3CCN(C)CC3)cnc2C(C)OC)c2c3cc(ccc31)-c1csc(n1)CC(NC(=O)C1CC1C)C(=O)N1CCCC(N1)C(=O)OCC(C)(C)C2 the IC50 (second compound 0.000949 µM) was 55 nM, the IC50 (second compound 0.003 µM) was 55 nM and the IC50 (second compound 0.00949 µM) was 29.2 nM. For the same compound, the IC50 (second compound 0.03 µM) was 2.58 nM, the IC50 (second compound 0.0949 µM) was < 0.316 nM and the IC50 (second compound 0.3 µM) was < 0.316 nM. The viability, T/C (second compound 0.000949 µM, first compound 0.000316 µM) was 103%, the viability, T/C (second compound 0.000949 µM, first compound 0.001 µM) was 101% and the viability, T/C (second compound 0.000949 µM, first compound 0.00316 µM) was 111%. The viability, T/C (second compound 0.000949 µM, first compound 0.01 µM) was 110%, the viability, T/C [1] was 93.2% and the viability, T/C [2] was 3.1%. It also gave a viability, T/C (second compound 0.003 µM, first compound 0.000316 µM) of 97.5%, a viability, T/C (second compound 0.003 µM, first compound 0.001 µM) of 95.7% and a viability, T/C (second compound 0.003 µM, first compound 0.00316 µM) of 101%. The viability, T/C (second compound 0.003 µM, first compound 0.01 µM) was 114%, the viability, T/C [7] was 93% and the viability, T/C [8] was 3.74%. For the same compound, the viability, T/C (second compound 0.00949 µM, first compound 0.000316 µM) was 108%, the viability, T/C (second compound 0.00949 µM, first compound 0.001 µM) was 114% and the viability, T/C (second compound 0.00949 µM, first compound 0.00316 µM) was 119%. It also gave a viability, T/C (second compound 0.00949 µM, first compound 0.01 µM) of 120%, a viability, T/C [13] of 45.1% and a viability, T/C [14] of 1.87%. For the same compound, the viability, T/C (second compound 0.03 µM, first compound 0.000316 µM) was 74.5%, the viability, T/C (second compound 0.03 µM, first compound 0.001 µM) was 74.2% and the viability, T/C (second compound 0.03 µM, first compound 0.00316 µM) was 39.7%. For the same compound, the viability, T/C (second compound 0.03 µM, first compound 0.01 µM) was 26.1%, the viability, T/C [19] was 4.36% and the viability, T/C [20] was 0.46%. The viability, T/C (second compound 0.0949 µM, first compound 0.000316 µM) was 7.99%, the viability, T/C (second compound 0.0949 µM, first compound 0.001 µM) was 7.3% and the viability, T/C (second compound 0.0949 µM, first compound 0.00316 µM) was 2.87%. The viability, T/C (second compound 0.0949 µM, first compound 0.01 µM) was 1.59%, the viability, T/C [25] was 0.69% and the viability, T/C [26] was 0.3%. It also gave a viability, T/C (second compound 0.3 µM, first compound 0.000316 µM) of 3.49%, a viability, T/C (second compound 0.3 µM, first compound 0.001 µM) of 2.63% and a viability, T/C (second compound 0.3 µM, first compound 0.00316 µM) of 1.48%. For the same compound, the viability, T/C (second compound 0.3 µM, first compound 0.01 µM) was 0.92%, the viability, T/C [31] was 0.47% and the viability, T/C [32] was 0.34%.
With `C[C@@H](NC(=O)c1ncnc(N)c1Cl)c1ncc(C(=O)Nc2cc(C(F)(F)F)c(Cl)cn2)s1` + CCn1c(-c2cc(N3CCN(C)CC3)cnc2C(C)OC)c2c3cc(ccc31)-c1csc(n1)CC(NC(=O)C1CC1C)C(=O)N1CCCC(N1)C(=O)OCC(C)(C)C2 the IC50 (second compound 0.000949 µM) was > 10000 nM, the IC50 (second compound 0.003 µM) was > 10000 nM and the IC50 (second compound 0.00949 µM) was > 10000 nM. The IC50 (second compound 0.03 µM) was > 10000 nM, the IC50 (second compound 0.0949 µM) was < 31.6 nM and the IC50 (second compound 0.3 µM) was < 31.6 nM. The viability, T/C [1] was 104%, the viability, T/C [2] was 100% and the viability, T/C [3] was 102%. For the same compound, the viability, T/C [4] was 98.9%, the viability, T/C [5] was 104% and the viability, T/C [6] was 112%. For the same compound, the viability, T/C [7] was 95.8%, the viability, T/C [8] was 99.7% and the viability, T/C [9] was 103%. It also gave a viability, T/C [10] of 101%, a viability, T/C [11] of 105% and a viability, T/C [12] of 114%. For the same compound, the viability, T/C [13] was 91.8%, the viability, T/C [14] was 104% and the viability, T/C [15] was 107%. The viability, T/C [16] was 111%, the viability, T/C [17] was 111% and the viability, T/C [18] was 115%. For the same compound, the viability, T/C [19] was 114%, the viability, T/C [20] was 121% and the viability, T/C [21] was 120%. It also gave a viability, T/C [22] of 119%, a viability, T/C [23] of 115% and a viability, T/C [24] of 89.2%. The viability, T/C [25] was 19.9%, the viability, T/C [26] was 28.3% and the viability, T/C [27] was 35.9%. For the same compound, the viability, T/C [28] was 43.4%, the viability, T/C [29] was 45.6% and the viability, T/C [30] was 18.5%. The viability, T/C [31] was 6.79%, the viability, T/C [32] was 9.47% and the viability, T/C [33] was 9.99%. It also gave a viability, T/C [34] of 13.3%, a viability, T/C [35] of 14.1% and a viability, T/C [36] of 8.3%.
